What all share (assay): Competitive isoTOP-ABPP in situ (fragment-treated cells)
Format in all cases: cell-based

Assay [1] addresses cysteines in MDA-MB-231 and Ramos cells (Homo sapiens, UniProt P53634).
Assay [2] deals with cysteines in MDA-MB-231 and Ramos cells (Homo sapiens, UniProt Q6XZF7).
Assay [3] concerns the target T1, cysteines in MDA-MB-231 and Ramos cells (Homo sapiens, UniProt Q96F86).
T1 sequence (Q96F86 1-508): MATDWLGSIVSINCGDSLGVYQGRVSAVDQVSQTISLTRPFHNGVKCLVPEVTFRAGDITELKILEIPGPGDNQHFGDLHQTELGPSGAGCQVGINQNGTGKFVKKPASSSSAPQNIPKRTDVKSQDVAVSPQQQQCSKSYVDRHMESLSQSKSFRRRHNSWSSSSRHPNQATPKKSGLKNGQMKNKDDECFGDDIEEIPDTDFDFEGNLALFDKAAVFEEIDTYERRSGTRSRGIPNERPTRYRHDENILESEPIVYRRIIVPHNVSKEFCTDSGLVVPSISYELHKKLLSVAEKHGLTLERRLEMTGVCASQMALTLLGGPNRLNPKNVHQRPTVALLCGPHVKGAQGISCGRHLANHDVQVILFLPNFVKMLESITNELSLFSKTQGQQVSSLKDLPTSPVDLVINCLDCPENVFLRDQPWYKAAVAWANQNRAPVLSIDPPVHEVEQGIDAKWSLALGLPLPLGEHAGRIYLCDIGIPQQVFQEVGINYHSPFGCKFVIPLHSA

Assay [4] deals with T2, cysteines in MDA-MB-231 and Ramos cells (Homo sapiens, UniProt P19447).
T2 sequence (P19447 1-782): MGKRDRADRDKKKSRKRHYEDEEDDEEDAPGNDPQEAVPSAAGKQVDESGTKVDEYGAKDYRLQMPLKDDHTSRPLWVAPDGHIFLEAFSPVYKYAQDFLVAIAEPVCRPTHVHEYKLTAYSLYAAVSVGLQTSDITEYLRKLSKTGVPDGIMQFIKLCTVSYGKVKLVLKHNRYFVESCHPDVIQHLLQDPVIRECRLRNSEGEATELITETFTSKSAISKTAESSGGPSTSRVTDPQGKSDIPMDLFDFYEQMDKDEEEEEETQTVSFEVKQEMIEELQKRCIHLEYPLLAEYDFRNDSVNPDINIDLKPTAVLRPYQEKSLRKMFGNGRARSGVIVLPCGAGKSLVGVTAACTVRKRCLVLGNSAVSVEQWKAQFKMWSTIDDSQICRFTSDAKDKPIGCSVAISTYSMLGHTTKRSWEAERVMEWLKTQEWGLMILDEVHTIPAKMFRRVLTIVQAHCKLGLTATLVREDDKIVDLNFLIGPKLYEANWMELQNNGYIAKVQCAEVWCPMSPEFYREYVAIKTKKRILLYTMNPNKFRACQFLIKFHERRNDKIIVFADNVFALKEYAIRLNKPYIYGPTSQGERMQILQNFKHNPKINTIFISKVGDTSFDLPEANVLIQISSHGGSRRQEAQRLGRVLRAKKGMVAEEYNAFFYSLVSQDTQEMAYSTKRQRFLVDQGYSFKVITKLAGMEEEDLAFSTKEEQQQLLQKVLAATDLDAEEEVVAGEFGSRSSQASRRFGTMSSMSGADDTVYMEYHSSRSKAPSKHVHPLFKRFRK

Assay [5] concerns the target T3, cysteines in MDA-MB-231 and Ramos cells (Homo sapiens, UniProt Q96P48).
T3 sequence (Q96P48 1-1450): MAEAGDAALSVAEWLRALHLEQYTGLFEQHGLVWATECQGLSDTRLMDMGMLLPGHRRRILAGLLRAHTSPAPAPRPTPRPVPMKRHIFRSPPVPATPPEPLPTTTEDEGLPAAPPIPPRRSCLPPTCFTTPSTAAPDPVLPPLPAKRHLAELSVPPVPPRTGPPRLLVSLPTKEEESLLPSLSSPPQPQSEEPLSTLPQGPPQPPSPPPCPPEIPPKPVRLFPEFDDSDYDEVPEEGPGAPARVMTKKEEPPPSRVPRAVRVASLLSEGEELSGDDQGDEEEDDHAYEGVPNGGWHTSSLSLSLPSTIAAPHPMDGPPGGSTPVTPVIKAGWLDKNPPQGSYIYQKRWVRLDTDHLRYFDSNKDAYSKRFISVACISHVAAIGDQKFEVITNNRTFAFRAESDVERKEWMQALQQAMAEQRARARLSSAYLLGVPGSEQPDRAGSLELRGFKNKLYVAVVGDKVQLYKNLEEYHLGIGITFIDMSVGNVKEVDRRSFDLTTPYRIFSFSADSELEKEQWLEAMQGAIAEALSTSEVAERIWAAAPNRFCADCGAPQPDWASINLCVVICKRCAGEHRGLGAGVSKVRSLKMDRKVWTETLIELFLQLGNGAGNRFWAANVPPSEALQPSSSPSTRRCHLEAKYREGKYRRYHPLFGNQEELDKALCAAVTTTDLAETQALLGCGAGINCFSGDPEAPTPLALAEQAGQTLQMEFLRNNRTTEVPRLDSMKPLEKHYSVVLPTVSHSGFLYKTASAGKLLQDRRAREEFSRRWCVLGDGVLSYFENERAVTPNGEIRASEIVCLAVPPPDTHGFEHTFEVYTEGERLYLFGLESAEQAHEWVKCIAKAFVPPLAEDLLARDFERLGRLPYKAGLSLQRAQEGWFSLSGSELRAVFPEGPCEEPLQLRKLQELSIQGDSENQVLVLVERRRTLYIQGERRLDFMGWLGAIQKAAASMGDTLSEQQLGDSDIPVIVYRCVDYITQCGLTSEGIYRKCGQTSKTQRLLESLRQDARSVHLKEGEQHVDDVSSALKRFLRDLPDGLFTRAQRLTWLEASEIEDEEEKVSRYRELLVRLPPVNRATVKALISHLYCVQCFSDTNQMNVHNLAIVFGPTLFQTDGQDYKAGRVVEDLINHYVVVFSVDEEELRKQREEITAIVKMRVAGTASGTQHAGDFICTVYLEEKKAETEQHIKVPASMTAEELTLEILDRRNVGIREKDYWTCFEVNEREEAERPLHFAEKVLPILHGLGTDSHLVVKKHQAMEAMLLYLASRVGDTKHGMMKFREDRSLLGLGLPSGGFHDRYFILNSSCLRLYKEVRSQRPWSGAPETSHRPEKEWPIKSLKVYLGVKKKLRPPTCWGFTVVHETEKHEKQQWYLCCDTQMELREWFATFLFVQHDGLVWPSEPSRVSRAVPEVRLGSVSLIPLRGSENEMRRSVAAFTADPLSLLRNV
The note with it: 200 μM, insitu.

cysteines in MDA-MB-231 and Ramos cells (Homo sapiens, UniProt P53634), sequence (P53634 25-463): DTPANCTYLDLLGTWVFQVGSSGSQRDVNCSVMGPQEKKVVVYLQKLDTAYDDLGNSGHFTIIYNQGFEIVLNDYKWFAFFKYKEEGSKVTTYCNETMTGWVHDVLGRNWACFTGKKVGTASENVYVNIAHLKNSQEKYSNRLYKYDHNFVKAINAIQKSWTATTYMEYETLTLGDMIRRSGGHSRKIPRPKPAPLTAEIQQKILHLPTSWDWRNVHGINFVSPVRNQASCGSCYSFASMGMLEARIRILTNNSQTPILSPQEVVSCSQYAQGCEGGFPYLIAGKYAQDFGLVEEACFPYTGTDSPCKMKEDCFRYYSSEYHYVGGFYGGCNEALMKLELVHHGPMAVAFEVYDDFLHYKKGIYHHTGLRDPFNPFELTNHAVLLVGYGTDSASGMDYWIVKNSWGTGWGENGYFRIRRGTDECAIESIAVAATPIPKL
cysteines in MDA-MB-231 and Ramos cells (Homo sapiens, UniProt Q6XZF7), sequence (Q6XZF7 whole entry): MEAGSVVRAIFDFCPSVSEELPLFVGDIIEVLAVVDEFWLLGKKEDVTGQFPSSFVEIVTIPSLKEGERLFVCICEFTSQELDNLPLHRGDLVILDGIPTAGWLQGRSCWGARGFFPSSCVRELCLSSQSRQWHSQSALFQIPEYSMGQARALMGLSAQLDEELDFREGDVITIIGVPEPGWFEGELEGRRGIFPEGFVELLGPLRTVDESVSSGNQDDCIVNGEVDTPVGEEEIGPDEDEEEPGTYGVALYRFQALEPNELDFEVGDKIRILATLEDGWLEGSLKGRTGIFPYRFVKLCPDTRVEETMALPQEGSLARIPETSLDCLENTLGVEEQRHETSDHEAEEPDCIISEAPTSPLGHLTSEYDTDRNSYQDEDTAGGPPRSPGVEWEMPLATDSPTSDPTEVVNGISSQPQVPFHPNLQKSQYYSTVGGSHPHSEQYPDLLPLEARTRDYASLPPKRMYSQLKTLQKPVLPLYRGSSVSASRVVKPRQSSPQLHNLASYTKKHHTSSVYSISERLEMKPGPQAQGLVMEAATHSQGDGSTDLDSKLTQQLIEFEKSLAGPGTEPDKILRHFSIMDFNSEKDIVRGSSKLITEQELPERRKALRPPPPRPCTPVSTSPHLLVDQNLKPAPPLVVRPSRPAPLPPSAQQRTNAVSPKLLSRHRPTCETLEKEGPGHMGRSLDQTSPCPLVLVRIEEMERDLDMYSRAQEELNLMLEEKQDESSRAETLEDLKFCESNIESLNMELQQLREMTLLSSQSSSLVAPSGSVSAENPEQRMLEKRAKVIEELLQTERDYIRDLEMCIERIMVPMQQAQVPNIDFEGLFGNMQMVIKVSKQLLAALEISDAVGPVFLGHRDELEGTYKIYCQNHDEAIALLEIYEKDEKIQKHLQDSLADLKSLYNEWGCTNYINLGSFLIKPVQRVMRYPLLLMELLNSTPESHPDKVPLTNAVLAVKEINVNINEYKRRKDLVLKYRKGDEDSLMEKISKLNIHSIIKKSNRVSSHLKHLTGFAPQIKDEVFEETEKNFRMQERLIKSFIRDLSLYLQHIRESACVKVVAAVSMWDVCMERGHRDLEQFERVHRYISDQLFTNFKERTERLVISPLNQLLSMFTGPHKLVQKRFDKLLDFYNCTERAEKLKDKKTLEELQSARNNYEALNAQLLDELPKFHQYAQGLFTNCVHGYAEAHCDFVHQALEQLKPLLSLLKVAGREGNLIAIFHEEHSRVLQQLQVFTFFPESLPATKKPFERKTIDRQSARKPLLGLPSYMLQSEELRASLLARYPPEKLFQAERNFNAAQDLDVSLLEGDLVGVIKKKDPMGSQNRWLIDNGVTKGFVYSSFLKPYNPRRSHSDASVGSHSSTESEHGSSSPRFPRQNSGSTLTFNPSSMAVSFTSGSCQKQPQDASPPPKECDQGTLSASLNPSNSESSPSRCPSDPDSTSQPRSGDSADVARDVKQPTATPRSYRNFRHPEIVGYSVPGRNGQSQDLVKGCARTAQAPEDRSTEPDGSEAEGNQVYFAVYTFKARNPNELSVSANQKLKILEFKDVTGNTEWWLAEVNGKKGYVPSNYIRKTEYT

Turning to `COc1ccc(C2CC(c3cccs3)=NN2C(=O)CCl)cc1` (stereo not shown) [compound 4], the “isoTOP-ABPP reactivity P53634_C258 CTSC” value in assay [1] (100 μM in situ 231) stood at 1.2. In addition, in assay [2] (100 μM in situ 231), the “isoTOP-ABPP reactivity Q6XZF7_C691 DNMBP” value is given as 1.2. Also, in assay [3] (100 μM in situ 231), the “isoTOP-ABPP reactivity Q96F86_C413 EDC3” value stood at 20.0.

Take `O=C(CCl)Nc1cccc2ncccc12` [compound 51]: the “isoTOP-ABPP ratio Q96F86_C413” value in assay [3] (200 μM, insitu, 231) was found to be 20.0.

In the case of `CC1CCc2ccccc2N1C(=O)CCl` (stereo not shown) [compound 45], in assay [3] (200 μM, insitu, 231), the “isoTOP-ABPP ratio Q96F86_C413” value was found to be 20.0. The “isoTOP-ABPP ratio P19447_C342” value in assay [4] (200 μM, insitu, 231) was 5.9.

On to `O=C(CCl)NC(=O)NC12CC3CC(CC(C3)C1)C2` [compound 12], for which the “isoTOP-ABPP ratio, cysteine Q96P48_C900” value in assay [5] (231) stood at 1.9. The “isoTOP-ABPP ratio, cysteine P53634_C258” value in assay [1] (200 μM, insitu, 231) turned out to be 13.4. Moreover, the “isoTOP-ABPP ratio P19447_C342” value in assay [4] (200 μM, insitu, 231) came to 6.7.

Take `O=C(CCl)N1CCN(S(=O)(=O)c2ccccc2F)CC1` [compound 10]: the “isoTOP-ABPP ratio, cysteine Q96P48_C900” value in assay [5] (231) was 1.8. For the same molecule, the “isoTOP-ABPP ratio, cysteine P53634_C258” value in assay [1] (200 μM, insitu, 231) is recorded as 5.5. Moreover, the “isoTOP-ABPP ratio, cysteine Q6XZF7_C691” value in assay [2] (200 μM, insitu, 231) stood at 20.0; in assay [2] (200 μM, insitu, ramos), 20.0. For the same molecule, the “isoTOP-ABPP ratio Q96F86_C413” value in assay [3] (200 μM, insitu, 231) came to 20.0; in assay [3] (200 μM, insitu, ramos), 20.0. In addition, the “isoTOP-ABPP ratio P19447_C342” value in assay [4] (200 μM, insitu, 231) stood at 20.0.

As for `O=C(CCl)N1CCN(CC(=O)N2CCOCC2)CC1` [compound 29], the “isoTOP-ABPP ratio Q96P48_C900” value in assay [5] (ramos) came out at 1.1. Also, the “isoTOP-ABPP ratio Q96F86_C413” value in assay [3] (200 μM, insitu, ramos) is listed as 1.9.

For `CC(C)CCOCCNC(=O)CCl` [compound 27], the “isoTOP-ABPP ratio Q96F86_C413” value in assay [3] (200 μM, insitu, 231) is on record as 0.7.

For the molecule `O=C(CCl)N1CCC(Cc2ccccc2)CC1` [compound 9], the “isoTOP-ABPP reactivity Q6XZF7_C691 DNMBP” value in assay [2] (200 μM, insitu, 231) stood at 3.4.

With `O=C(CCl)NC12CC3CC(CC(C3)C1)C2` [compound 21], in assay [5] (231), the “isoTOP-ABPP ratio, cysteine Q96P48_C900” value was found to be 0.7. In addition, the “isoTOP-ABPP ratio, cysteine P53634_C258” value in assay [1] (200 μM, insitu, 231) came out at 2.8. The “isoTOP-ABPP ratio, cysteine Q6XZF7_C691” value in assay [2] (200 μM, insitu, 231) turned out to be 0.8. The “isoTOP-ABPP ratio Q96F86_C413” value in assay [3] (200 μM, insitu, 231) amounted to 0.8. The “isoTOP-ABPP ratio P19447_C342” value in assay [4] (200 μM, insitu, 231) is reported as 2.0.

With `COc1ccc2c(c1)CCCN2C(=O)CCl` [compound 2], the “isoTOP-ABPP reactivity Q96P48_C900 ARAP1” value in assay [5] (231) came to 5.5. In addition, the “isoTOP-ABPP reactivity P53634_C258 CTSC” value in assay [1] (200 μM, insitu, 231) is 0.9. For the same molecule, the “isoTOP-ABPP reactivity Q96F86_C413 EDC3” value in assay [3] (200 μM, insitu, 231) turned out to be 20.0.

As to `Cn1cc(S(=O)(=O)N2CCOCC2)cc1C(=O)NC(=O)CCl` [compound 11], the “isoTOP-ABPP ratio Q96F86_C413” value in assay [3] (100 μM in situ 231) came out at 20.0. Further, in assay [4] (100 μM in situ 231), the “isoTOP-ABPP ratio P19447_C342” value is on record as 0.7.

As to `O=C(CCl)NCCc1c[nH]c2ccccc12` [compound 13], the “isoTOP-ABPP ratio, cysteine Q96P48_C900” value in assay [5] (231) stood at 1.2. Besides, the “isoTOP-ABPP ratio, cysteine P53634_C258” value in assay [1] (200 μM, insitu, 231) came to 1.6. Besides, in assay [2] (200 μM, insitu, 231), the “isoTOP-ABPP ratio, cysteine Q6XZF7_C691” value is 1.6. Moreover, the “isoTOP-ABPP ratio Q96F86_C413” value in assay [3] (200 μM, insitu, 231) came out at 1.6; in assay [3] (200 μM, insitu, ramos) it was 2.0. For the same molecule, the “isoTOP-ABPP ratio P19447_C342” value in assay [4] (200 μM, insitu, 231) worked out at 1.1.

`Cc1ccc(C=C(C#N)C(=O)NCCN2CCOCC2)cc1` [compound 41]: in assay [5] (231), the “isoTOP-ABPP ratio Q96P48_C900” value is 0.5. For the same molecule, in assay [4] (200 μM, insitu, 231), the “isoTOP-ABPP ratio P19447_C342” value amounted to 0.7.

Consider `C=CC(=O)Nc1cc(F)c(N2CCN(C(=O)OC(C)(C)C)CC2)c(F)c1` [compound 38], for which the “isoTOP-ABPP ratio P19447_C342” value in assay [4] (200 μM, insitu, 231) amounted to 1.0.

With `C=CC(=O)N(Cc1cccnc1)c1cc(C(F)(F)F)cc(C(F)(F)F)c1` [compound 31], in assay [5] (231), the “isoTOP-ABPP ratio Q96P48_C900” value is 1.1. In assay [2] (200 μM, insitu, 231), the “isoTOP-ABPP ratio Q6XZF7_C691” value is on record as 2.3. In addition, the “isoTOP-ABPP ratio Q96F86_C413” value in assay [3] (200 μM, insitu, ramos) was found to be 1.3.

For `COc1cc2c(cc1OC)CN(C(=O)CCl)CC2` [compound 8], the “isoTOP-ABPP reactivity P19447_C342 ERCC3” value in assay [4] (200 μM, insitu, 231) was found to be 12.4.

For the origin of these results see patent US10670605B2, “Cysteine reactive probes and uses thereof” (The Scripps Research Institute, priority 2015, dated 2020).
